Results reported in ChEMBL document CHEMBL1201862, “PubChem BioAssay data set” (2004).
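Method: 48-hour compound exposure of cells in 96-well plates, five concentrations, linear interpolation of endpoints. The concentration for 50% growth inhibition is given as GI50.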 Calls of active or inactive are those of the source. Rule as the data show it: active = GI50 up to about 1.1 µM and inactive = higher.

What was measured:
Assay in all cases: NCI-60 cell line screen, 48 h
[1] = tested on: HT-29
[2] = tested on: CCRF-CEM
[3] = tested on: SK-OV-3
[4] = tested on: HOP-92
[5] = tested on: EKVX
[6] = tested on: OVCAR-3
[7] = tested on: HOP-62
[8] = tested on: HCC 2998
[9] = tested on: U-251
[10] = tested on: MDA-MB-435
[11] = tested on: SF-539
[12] = tested on: T47D
[13] = tested on: OVCAR-4
[14] = tested on: NCI-H23
[15] = tested on: SK-MEL-5
[16] = tested on: SNB-19
[17] = tested on: NCI/ADR-RES
[18] = tested on: TK-10
[19] = tested on: KM12
[20] = tested on: OVCAR-5
[21] = tested on: SF-295
[22] = tested on: 786-0
[23] = tested on: MOLT-4
[24] = tested on: BT-549
[25] = tested on: OVCAR-8
[26] = tested on: MCF7
[27] = tested on: LOX IMVI
[28] = tested on: DU-145
[29] = tested on: IGROV-1
[30] = tested on: COLO 205
[31] = tested on: NCI-H226
[32] = tested on: UACC-257
[33] = tested on: A549
[34] = tested on: UO-31
[35] = tested on: CAKI-1
[36] = tested on: HCT-15
[37] = tested on: MDA-N
[38] = tested on: HL-60
[39] = tested on: HCT-116
[40] = tested on: M14
[41] = tested on: MDA-MB-231
[42] = tested on: SR
[43] = tested on: SN12C
[44] = tested on: RPMI-8226
[45] = tested on: SK-MEL-2
[46] = tested on: SK-MEL-28
[47] = tested on: SF-268
[48] = tested on: UACC-62
[49] = tested on: ACHN
[50] = tested on: NCI-H522
[51] = tested on: PC-3
[52] = tested on: K562
[53] = tested on: A498
[54] = tested on: SW-620
[55] = tested on: RXF 393
[56] = tested on: NCI-H460
[57] = tested on: SNB-75

Measured: GI50

CC(C)(C)OC(=O)NCC(=O)N1CCN(C(=O)CNC(=O)OC(C)(C)C)CC1
> 100 µM: [36]
inactive: [1] > 100 µM | [2] > 100 µM | [3] > 100 µM | [4] > 100 µM | [5] > 100 µM | [6] > 100 µM | [7] > 100 µM | [8] > 100 µM | [9] > 100 µM | [10] > 100 µM | [11] > 100 µM | [12] > 100 µM | [13] > 100 µM | [14] > 100 µM | [15] > 100 µM | [16] > 100 µM | [17] > 100 µM | [18] > 100 µM | [19] > 100 µM | [20] > 100 µM | [21] > 100 µM | [22] > 100 µM | [23] > 100 µM | [24] > 100 µM | [25] > 100 µM | [26] > 100 µM | [27] > 100 µM | [28] > 100 µM | [29] > 100 µM | [30] > 100 µM | [31] > 100 µM | [32] > 100 µM | [33] > 100 µM | [34] > 100 µM | [35] > 100 µM | [37] > 100 µM | [38] > 100 µM | [39] > 100 µM | [40] > 100 µM | [41] > 100 µM | [42] > 100 µM | [43] > 100 µM | [44] > 100 µM | [45] > 100 µM | [46] > 100 µM | [47] 18.7 µM | [48] > 100 µM | [49] > 100 µM | [50] 2.55 µM | [51] > 100 µM | [52] > 100 µM | [53] > 100 µM | [54] > 100 µM

CCCc1c(OC)c(=O)c2c(OC)cc(OC)c3c4c(OC)cc(OC)c5c(=O)c(OC)c(CCC)c(c1c23)c54
12.8 µM: [36]
inactive: [1] 11.4 µM | [3] 15.5 µM | [4] 10.9 µM | [5] 11.8 µM | [6] 14.8 µM | [7] 18 µM | [8] 20.1 µM | [9] 16 µM | [55] 20.7 µM | [10] 16 µM | [56] 13.7 µM | [11] 15.1 µM | [12] 4.07 µM | [13] 13.3 µM | [14] 14.9 µM | [15] 10.7 µM | [16] 19.8 µM | [17] 21.2 µM | [18] 21 µM | [19] 14.6 µM | [20] 15.2 µM | [21] 17.8 µM | [22] 13.1 µM | [23] 7.91 µM | [24] 15 µM | [25] 17.5 µM | [26] 17.1 µM | [27] 7.4 µM | [28] 12.2 µM | [29] 14.8 µM | [30] 8.47 µM | [31] 16.2 µM | [32] 20.7 µM | [33] 19.4 µM | [34] 15.5 µM | [57] 7.23 µM | [35] 14.6 µM | [37] 15.2 µM | [38] 2.77 µM | [39] 13.8 µM | [40] 16.9 µM | [41] 4.38 µM | [43] 18.6 µM | [45] 22 µM | [46] 13.4 µM | [47] 16.1 µM | [48] 11.9 µM | [49] 15.8 µM | [53] 19.1 µM | [54] 17.3 µM

CCOC(=O)c1c(O)cc(=O)[nH]c1N1CCOCC1
> 100 µM: [36]
inactive: [1] > 100 µM | [2] > 100 µM | [3] > 100 µM | [4] > 100 µM | [5] > 100 µM | [6] > 100 µM | [7] > 100 µM | [8] > 100 µM | [9] > 100 µM | [10] > 100 µM | [56] > 100 µM | [11] > 100 µM | [12] > 100 µM | [14] > 100 µM | [15] > 100 µM | [16] > 100 µM | [17] > 100 µM | [19] > 100 µM | [20] > 100 µM | [21] > 100 µM | [22] > 100 µM | [23] > 100 µM | [24] > 100 µM | [25] > 100 µM | [26] > 100 µM | [27] > 100 µM | [28] > 100 µM | [29] > 100 µM | [30] > 100 µM | [31] > 100 µM | [32] > 100 µM | [33] > 100 µM | [34] > 100 µM | [57] > 100 µM | [35] > 100 µM | [37] > 100 µM | [39] > 100 µM | [40] > 100 µM | [42] > 100 µM | [43] > 100 µM | [44] > 100 µM | [45] > 100 µM | [46] > 100 µM | [48] > 100 µM | [49] > 100 µM | [51] > 100 µM | [52] > 100 µM | [53] > 100 µM | [54] > 100 µM
